{"source": "paper PMC6424996", "about": "“Effect of peptide-conjugated nanoparticles on cell lines” (Progress in Biomaterials, 2019)", "format_in_all_cases": "cell-based", "key": {"[1]": {"test_system": "HT-29 cells", "assay": "PI/AO staining for dead/live cells, HT-29", "conditions": "HT-29, 1 µg/mL, 24 h, Figs. 6, 8", "experimental": "(§1) HT-29 and MDA MB-231 cells were plated at a density of 1 × 10^6 cells/mL in 6-well tissue culture plates. They were treated with 1 µg/mL each of AgNP, AuNP, P1, P1–AgNP and P1–AuNP conjugated samples and were incubated in at 37 °C in 5% CO2 for 24 h. The cells were then harvested and washed twice using PBS after centrifugation at 2000 rpm for 5 min. An equal volume (10 µg/mL) of fluorescent dyes, propidium iodide (PI)/acridine orange (AO) was added to the cellular pellet. These freshly stained cells were observed under an inverted fluorescent microscope within 30 min (Banerjee and Ravishankar [2017]).\n(§2) The nucleic acid-binding dyes propidium iodide (PI) and acridine orange (AO) help us to detect the dead cells and live cells under the microscope. AO permeates both dead and live cells; thus, it stains all nucleated cells to generate green fluorescence, whereas PI identifies the dead cells only and fluoresce red. The treated cancer cells were both stained with PI and AO equally, and were observed under fluorescence microscope. The results are obtained on swapping of the images to have an apparent understanding of the drug effects (Hajrezaie et al [2015]; Hajiaghaalipour et al [2015])."}, "[2]": {"test_system": "HT-29 (Colon carcinoma) cells", "assay": "MTT assay of nanoparticles, P1 and conjugates on HT-29", "conditions": "24 h exposure, 5000 cells/well, 570 nm, triplicates", "experimental": "Cell lines were acquired from NCCS—National Centre for Cell Science, Pune, India. The HT-29 (Colon carcinoma) and MDA MB-231 (Breast cancer) cells were plated into 25-mm^2 T-flasks after thawing them at 37 °C in a water bath for few minutes. The thawed cells were transferred in a centrifuge tube and centrifuged for 3 min at 2000 rpm/min. The cells were, thus, collected discarding the supernatant and mixed well in Dulbecco’s modified Eagle’s medium (DMEM) solution with 12% fetal bovine serum, and antibiotics (streptopenicillin and amphotericin B solution, Sigma). Later, they were plated in 25 mm^2 in the same DMEM solution, individually. The T-flasks containing the cells were incubated for 24 h in humidified environment with 5% CO2. These cells after 24 h were washed with phosphate buffer saline (PBS). The medium was regularly changed for the cells to reach 50% confluence (Hajiaghaalipour et al [2015]). To check the viability of cells, MTT assay was carried out and 96-well plates were used to seed the cell lines of interest at 5000 cells/well and incubated overnight at 37 °C in an incubator with 5% CO2. After incubation, the cells were treated with different concentrations (1, 5, 10 μg/mL) of P1, AgNPs, AuNPs, P1–AgNP and P1–AuNP conjugates. The plates along with the treated cells were again incubated for 24 h at the same condition. […] The measurement of MTT assay was analyzed with Elisa Reader (Thermo Scientific, Multiskan Spectrum) at 570 nm (Inkielewicz-Stepniak et al [2014]). Percentage inhibition of cells was calculated according to the following equation: Cytotoxicity(%)=(experimentalabsorbance570nmofexposedcells/absorbance570nmofunexposedcells)×100.\nAll experiments were done in triplicates and the results were represented as mean ± SEM. The experimental data were read by two-way analysis of variance (ANNOVA). […] The IC-50 value was calculated using Microsoft Excel 2007 software (logarithmic transformation of X values and nonlinear regression sigmoidal dose–response analysis with variable slope—with bottom and top constraints set at 0 and 100, resp.)."}, "[3]": {"test_system": "MDA MB-231 cells", "assay": "PI/AO staining for dead/live cells, MDA MB-231", "conditions": "MDA MB-231, 1 µg/mL, 24 h, Figs. 7, 9", "experimental": "as §1, §2"}, "[4]": {"test_system": "HT-29 (Colon carcinoma) cells", "assay": "Screening of cytotoxic activity of peptides by MTT assay on HT-29 cells", "conditions": "for % inhibition (peptide screening): HT-29 cancerous cells, MTT, Fig. 1", "protocol": "Different concentrations of the peptides (1 μL, 3 μL, 5 L, 10 μL, 20 μL) were used to treat the cancerous and normal cells consecutively (Inkielewicz-Stepniak et al. [2014]). The percentage inhibition was calculated."}, "[5]": {"test_system": "MDA MB-231 (Breast cancer) cells", "assay": "MTT assay of nanoparticles, P1 and conjugates on MDA MB-231", "conditions": "for % inhibition: MTT, 24 h exposure, 5000 cells/well, 570 nm, triplicates", "experimental": "Cell lines were acquired from NCCS—National Centre for Cell Science, Pune, India. The HT-29 (Colon carcinoma) and MDA MB-231 (Breast cancer) cells were plated into 25-mm^2 T-flasks after thawing them at 37 °C in a water bath for few minutes. The thawed cells were transferred in a centrifuge tube and centrifuged for 3 min at 2000 rpm/min. The cells were, thus, collected discarding the supernatant and mixed well in Dulbecco’s modified Eagle’s medium (DMEM) solution with 12% fetal bovine serum, and antibiotics (streptopenicillin and amphotericin B solution, Sigma). Later, they were plated in 25 mm^2 in the same DMEM solution, individually. The T-flasks containing the cells were incubated for 24 h in humidified environment with 5% CO2. These cells after 24 h were washed with phosphate buffer saline (PBS). The medium was regularly changed for the cells to reach 50% confluence (Hajiaghaalipour et al [2015]). To check the viability of cells, MTT assay was carried out and 96-well plates were used to seed the cell lines of interest at 5000 cells/well and incubated overnight at 37 °C in an incubator with 5% CO2. After incubation, the cells were treated with different concentrations (1, 5, 10 μg/mL) of P1, AgNPs, AuNPs, P1–AgNP and P1–AuNP conjugates. The plates along with the treated cells were again incubated for 24 h at the same condition. The stored stock of MTT solution was added to the control and treated cell line samples, and again incubated at 37 °C for 2–3 h. After incubation, the media were carefully removed from the wells and mixed with solubilizing buffer. A purple color solution was visible at this stage. The control solution (without incorporation of nanoparticles/pure incubated cells) and treated samples were again incubated for an hour at 37 °C to ensure that the formazan precipitate was dissolved. The measurement of MTT assay was analyzed with Elisa Reader (Thermo Scientific, Multiskan Spectrum) at 570 nm (Inkielewicz-Stepniak et al [2014]). Percentage inhibition of cells was calculated according to the following equation: Cytotoxicity(%)=(experimentalabsorbance570nmofexposedcells/absorbance570nmofunexposedcells)×100.\nAll experiments were done in triplicates and the results were represented as mean ± SEM. The experimental data were read by two-way analysis of variance (ANNOVA). Differences were considered significant at p < 0.05. The IC-50 value was calculated using Microsoft Excel 2007 software (logarithmic transformation of X values and nonlinear regression sigmoidal dose–response analysis with variable slope—with bottom and top constraints set at 0 and 100, resp.)."}, "[6]": {"test_system": "NIH3T3 (Mouse embryo fibroblast) cells", "assay": "Cytotoxicity on normal NIH3T3 cells (MTT assay)", "experimental": "Above-mentioned peptides (P1, P2, P3, P4, and P5) obtained from other sources were screened for cytotoxicity by MTT assay on NIH3T3 (Mouse embryo fibroblast) cells (normal) and HT-29 (Colon carcinoma) cells (cancerous) by MTT assay. Different concentrations of the peptides (1 μL, 3 μL, […], 10 μL, 20 μL) were used to treat the cancerous and normal cells consecutively (Inkielewicz-Stepniak et al. [2014]). The percentage inhibition was calculated."}}, "note": "Where “and” joins values, the source holds several entries; their conditions need not be identical. Equal entries are not always repeated. Where a SMILES comes first, the peptide text is derived from it.", "data": [{"molecule": "COC(=O)[C@H](CC(C)C)NC(=O)[C@H]1CCCN1C(=O)[C@H](CC(C)C)NC(=O)OC(C)(C)C", "note": "[Peptide P1, Boc-L-^DP-L-OMe] (HELM PEPTIDE1{[CC(C)(C)OC(=O)[*:2]].L.[dP].L.[CO[*:1]]}$$$$V2.0)", "values": [{"measurement": "PI/AO fluorescent staining, observed state of the cells", "setting": "[1]", "value": "a number of apoptotic cells as well and very few dead cells"}, {"measurement": "% inhibition", "setting": "[2]; HT 29, 1 µg/mL", "value": "~ 19% and 19.69%"}, {"measurement": "% inhibition", "setting": "[2]; HT 29, 5 µg/mL", "value": 22.05, "unit": "%"}, {"measurement": "% inhibition", "setting": "[2]; HT 29, 10 µg/mL", "value": 27.72, "unit": "%"}, {"measurement": "PI/AO fluorescent staining, observed state of the cells", "setting": "[3]", "value": "a number of apoptotic cells as well and very few dead cells"}, {"measurement": "IC50 rank among the five peptides", "setting": "[4]; HT-29, MTT, Fig. 1 legend", "value": "best IC50 value"}, {"measurement": "% inhibition (peptide screening)", "setting": "[4]; lowest concentration 1 µg/mL", "value": 23.22, "unit": "%"}, {"measurement": "% inhibition", "setting": "[5]; MDA MB 231, 1 µg/mL", "value": 29.98, "unit": "%"}, {"measurement": "% inhibition", "setting": "[5]; MDA MB 231, 5 µg/mL", "value": 37.11, "unit": "%"}, {"measurement": "% inhibition", "setting": "[5]; MDA MB 231, 10 µg/mL", "value": 60.69, "unit": "%"}, {"measurement": "inhibition of up to (concentration not given)", "setting": "[5]; MDA MB-231, MTT, Fig. 5b/5d, concentration not given", "value": "around 29%"}, {"measurement": "change of NIH3T3 cells due to treatment", "setting": "[6]", "value": "do not show much change"}]}, {"molecule": "(U^BF)4-OMe [Peptide P2]", "values": [{"measurement": "% inhibition (peptide screening)", "setting": "[4]; lowest concentration 1 µg/mL", "value": 15.93, "unit": "%"}]}, {"molecule": "Boc-P-A-OH [Peptide P3]", "values": [{"measurement": "% inhibition (peptide screening)", "setting": "[4]; lowest concentration 1 µg/mL", "value": 9.12, "unit": "%"}]}, {"molecule": "Boc-P-U-OH [Peptide P4]", "values": [{"measurement": "% inhibition (peptide screening)", "setting": "[4]; 5 µg/mL", "value": "around 20%"}]}, {"molecule": "Boc-βGly-βGly-OMe [Peptide P5]", "values": [{"measurement": "% inhibition (peptide screening)", "setting": "[4]; 5 µg/mL", "value": "around 20%"}]}]}
